In US7344734B2, “Powder formulation” (Rijksuniversiteit Groningen, priority 2000, dated 2008):

Legend:
Assay type in all cases: physicochemical
[1] = Laser diffraction analysis of the aerosol cloud from the Pharmachemie Cyclohaler (ISF inhaler); conditions: 60 l/min, 10 mg per capsule, six inhalations
Description: (§1) The aerosol cloud from the inhaler was characterized with a laser diffraction technique (Sympatec HELOS Compact, model KA with 100 mm lens) using the Fraunhofer theory. A special inhaler adapter was used in order to adjust the required flow rate through the inhaler device. The adapter consisted of a cylindrical chamber with side tubes connecting the adapter at both sides to the housing of the laser diffraction apparatus. The inhaler device was connected to the front of the adapter, whereas the vacuum system was connected to the rear end of the adapter. Thus, a closed system was created through which the flow rate can be controlled very carefully and in which the aerosol cloud passes the laser beam for the measurement. Standard HELOS software was used: start and stop of the measurement was triggered on channel 32 with 0.1% difference in optical signal (compared with the signal during reference measurement). The mass fraction of the dose delivered by the inhaler was not analyzed during these experiments (no particle collector in line with the adapter).
Pure micronized Colistin was also inhaled with a commercial DPI (Pharmachemie Cyclohaler equals ISF Inhaler equals Novartis Foradil Inhaler, see FIG. 3), using the same (laser diffraction) procedures. Six hard gelatin capsules (no. 3) were filled with 10 mg per capsule and the capsules were sealed before use. Inhalation time was 3 seconds. […]

[2] = Laser diffraction analysis of the aerosol cloud from the test inhaler (cyclone); conditions: 60 l/min, 20 mg per inhalation, lactose fraction 63-106 μm, mean of 6 inhalations
Method: Inhalation experiments with the mixture were performed at 60 l/min with a test inhaler (see FIG. 1), having the same disintegration principle (cyclone) as the Colistin dry powder inhaler (prototype). […]
as §1
II The physical mixture with 83.3% Colistin was also tested with the test inhaler at 20, 30, 40 and 50 l/min. […]

[3] = Dry laser diffraction analysis of Colistin powder (RODOS dispersion)
Method: A lactose size fraction of 106-150 μm, derived from 100 M lactose (DMV International, Veghel, The Netherlands) was used as excipient. The fraction was prepared by subsequent vibratory sieving (20 minutes in a Fritsch Analysette 3, Idar-Oberstein, Germany) and air jet sieving (10 minutes in an Alpine A200, Augsburg, Germany) of small quantities (approx. 50 g) of the starting material. Micronized Colistin was prepared by fluid energy milling (GfM, Hamburg, Germany), but because the size distribution of the active ingredient was not satisfactory, size reduction of the crystalline material was continued for 26.5 hours in a ball mill (50 g in a container of 750 ml, filled with ceramic balls of different sizes to a filling degree of 67%). The container was placed on a home constructed drive. Size distributions before and after milling in the ball mill were measured with laser diffraction technique (Fraunhofer theory, using Sympatec HELOS Compact, model KA with 100 mm lens) using dry dispersion with a RODOS disperser at 4 bar.

[4] = primary Colistin particles, RODOS dispersion

Colistin
average median diameter for the aerosol cloud [1]: 18.23 micron | X-50 (μm) From cum. undersize curve [2]: 2.3 μm | X-90 (μm) From cum. Undersize curve [2]: 7.5 μm | mean diameter (X50-value) ([3]; after size reduction in the ball mill (26.5 hours), RODOS dispersion, n=3): 2.14 μm | X100-value ([3]; after size reduction in the ball mill, RODOS dispersion): 87.0 μm | mean diameter (X50-value) ([3]; before size reduction in the ball mill, RODOS disperser at 4 bar): 6.43 μm | X100-value ([3]; before size reduction in the ball mill, RODOS dispersion): 51.0 μm | X-50 (μm) From cum. undersize curve [3, 4]: 2.1 μm | X-90 (μm) From cum. Undersize curve [3, 4]: 31.0 μm
